Assay: xn = mol fraction of the nth substance listed

CC(=O)c1ccccc1 + ClC(Cl)Cl
298.15 K, 101 kPa
Conditions	viscosity [mPa·s]
x1 = 0.0992	0.655
x1 = 0.337	0.915
x1 = 0.501	1.107
x1 = 0.7125	1.352
x1 = 0.8875	1.53

O=S(Cl)Cl + Cc1cc(C)cc(C)c1
298.15 K, 101 kPa
Conditions	viscosity [mPa·s]
x1 = 0.234	0.685
x1 = 0.314	0.6908
x1 = 0.432	0.6952
x1 = 0.571	0.6939
x1 = 0.743	0.677
x1 = 0.9	0.6495

C1COCO1 + CO
303.15 K, 101 kPa
Conditions	viscosity [mPa·s]
x1 = 0.04585	0.5056
x1 = 0.09758	0.5088
x1 = 0.1564	0.516
x1 = 0.2238	0.5272
x1 = 0.3019	0.5382
x1 = 0.3935	0.5516
x1 = 0.5023	0.5642
x1 = 0.6337	0.5454
x1 = 0.7956	0.5446

CCCCCCCCC + CCCCCCC
298.15 K, 101.33 kPa
Conditions	viscosity [mPa·s]
x2 = 0.1102	0.6128
x2 = 0.2046	0.5921
x2 = 0.3052	0.562
x2 = 0.407	0.5372
x2 = 0.5092	0.5104
x2 = 0.6073	0.4838
x2 = 0.7071	0.4588
x2 = 0.8027	0.4312
x2 = 0.8996	0.4081

CCCCCCCCC + C1CCCCC1
viscosity [mPa·s], 101.33 kPa
Conditions	298.15 K	303.15 K	308.15 K
x2 = 0.106	0.658	0.617	0.576
x2 = 0.1286	0.6708	–	–
x2 = 0.1999	0.664	0.623	0.582
x2 = 0.2414	0.6821	–	–
x2 = 0.2987	0.672	0.632	0.589
x2 = 0.342	0.686	–	–
x2 = 0.3971	0.677	0.633	0.591
x2 = 0.4371	0.7041	–	–
x2 = 0.4952	0.696	0.648	0.602
x2 = 0.5293	0.7089	–	–
x2 = 0.5978	0.708	0.659	0.616
x2 = 0.6059	0.7214	–	–
x2 = 0.683	0.7381	–	–
x2 = 0.6994	0.73	0.679	0.631
x2 = 0.7423	0.7545	–	–
x2 = 0.7989	0.762	0.706	0.658
x2 = 0.8068	0.7761	–	–
x2 = 0.873	0.8053	–	–
x2 = 0.8991	0.805	0.743	0.687
x2 = 0.9395	0.8376	–	–
x2 = 0.9769	0.881	–	–

CCCCCCCC/C=C\CCCCCCCC(=O)OCC(COC(=O)CCCCCCC/C=C\CCCCCCCC)OC(=O)CCCCCCC/C=C\CCCCCCCC + Cc1ccc(C)cc1
viscosity [mPa·s], 101.33 kPa
Conditions	293.15 K	298.15 K	303.15 K	308.15 K	313.15 K
x1 = 0.000755	0.6573	0.6175	0.5813	0.5465	0.5168
x1 = 0.001496	0.6699	0.6292	0.5923	0.5567	0.5261
x1 = 0.004118	0.7209	0.6762	0.6359	0.5968	0.5636
x1 = 0.007318	0.7825	0.7329	0.6883	0.6454	0.609
x1 = 0.01139	0.8597	0.8042	0.7541	0.706	0.665
x1 = 0.01526	0.9594	0.8955	0.8379	0.7833	0.7368
x1 = 0.02469	1.185	1.101	1.027	0.9558	0.8959
x1 = 0.02908	1.291	1.197	1.115	1.037	0.9704
x1 = 0.03513	1.421	1.316	1.222	1.134	1.06
x1 = 0.04678	1.777	1.637	1.513	1.399	1.302
x1 = 0.06075	2.241	2.061	1.885	1.733	1.605

O=C1CCC[NH+]1C1CCCCC1.O=S(=O)([O-])c1ccccc1 + O
Conditions	viscosity [mPa·s]
303.15 K, 101 kPa, x1 = 0.01351	1.405

C=CCN(CC=C)C(=O)C(Cl)Cl + CC(C)=O
viscosity [mPa·s], 101 kPa
Conditions	x1 = 0.006314	x1 = 0.01189	x1 = 0.01711	x1 = 0.02832	x1 = 0.03651	x1 = 0.04464	x1 = 0.05006	x1 = 0.05495
293.15 K	0.3429	0.3501	0.3617	0.3719	0.3878	0.3997	0.4079	0.4157
298.15 K	0.3335	0.3358	0.3476	0.3589	0.3712	0.3822	0.3905	0.3989
303.15 K	0.3189	0.3227	0.3309	0.3424	0.3542	0.3646	0.3722	0.3793
308.15 K	0.3041	0.3086	0.3185	0.3268	0.3372	0.3478	0.3553	0.3628
313.15 K	0.2944	0.296	0.3075	0.3129	0.3247	0.3335	0.3423	0.3443

ClC(Cl)C(Cl)(Cl)Cl + c1ccc(Oc2ccccc2)cc1
298.15 K, 101 kPa
Conditions	viscosity [mPa·s]
x2 = 0.2642	2.64
x2 = 0.5109	2.97
x2 = 0.7611	3.36

CCCOCC(C)O (centres undefined) + CCO
viscosity [mPa·s], 101.33 kPa
Conditions	298.15 K	308.15 K	318.15 K
x1 = 0.05	1.18	0.974	0.813
x1 = 0.1	1.272	1.041	0.863
x1 = 0.15	1.363	1.108	0.911
x1 = 0.2	1.448	1.171	0.96
x1 = 0.25	1.534	1.231	1.005
x1 = 0.3	1.612	1.288	1.046
x1 = 0.35	1.716	1.362	1.105
x1 = 0.4	1.79	1.417	1.142
x1 = 0.45	1.862	1.467	1.177
x1 = 0.5	1.928	1.513	1.21
x1 = 0.55	1.998	1.557	1.241
x1 = 0.6	2.056	1.602	1.274
x1 = 0.65	2.113	1.651	1.297
x1 = 0.7	2.168	1.674	1.322
x1 = 0.75	2.219	1.706	1.345
x1 = 0.8	2.264	1.734	1.368
x1 = 0.8498	2.307	1.766	1.389
x1 = 0.9	2.354	1.79	1.406
x1 = 0.95	2.369	1.815	1.414
